{
  "source": "the supplement of paper PMC10307832",
  "assay_in_all_cases": "relative viability (nuclei count vs DMSO), 5 days (fraction); higher = more cells survive",
  "key": {"[1]": {"compound": "O=C(Nc1cc(C(F)(F)F)cc(C(F)(F)F)c1)c1cc(Cl)ccc1O [IMD-0354] + COc1cccc2cc(-c3nc([C@H]4CC[C@H](C(=O)O)CC4)n4ncnc(N)c34)[nH]c12 [OSI-027] (partner 0.5 µM)", "procedure,_shortened": "(§1)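 The day after seeding in 1536-well plates, lung cancer cell lines were treated by pin tool with a single drug, or with a fixed anchor-drug dose together with five library-drug doses (not always all listed) in √10 steps. After 5 days, a combined fix-and-stain solution (final 0.05% Triton X-100, 1% formaldehyde, 1 ug/ml Hoechst) was added. Nuclei counted on 4× images gave relative viability as treated counts over vehicle counts, reported as the median of duplicate plates.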"}, "[2]": {"compound": "Cc1cnc(CNC(=O)c2c(=O)c3ccc(N4CCCN(C)CC4)nc3n3c2sc2ccccc23)cn1 [CX-5461] + CCNC(=O)c1noc(-c2cc(C(C)C)c(O)cc2O)c1-c1ccc(CN2CCOCC2)cc1 [Luminespib] (partner 0.01 µM)", "procedure,_shortened": "as §1"}, "[3]": {"compound": "Cc1cnc(CNC(=O)c2c(=O)c3ccc(N4CCCN(C)CC4)nc3n3c2sc2ccccc23)cn1 [CX-5461] + CS(=O)(=O)N1CCN(Cc2cc3nc(-c4cccc5[nH]ncc45)nc(N4CCOCC4)c3s2)CC1 [Pictilisib] (partner 1 µM)", "procedure,_shortened": "as §1"}, "[4]": {"compound": "O=C(Nc1cc(C(F)(F)F)cc(C(F)(F)F)c1)c1cc(Cl)ccc1O [IMD-0354] + NC(=O)Nc1cc(-c2cccc(F)c2)sc1C(=O)N[C@H]1CCCNC1 [AZD7762] (partner 0.2 µM)", "procedure,_shortened": "as §1"}},
  "data": [
    {"cell line": "NCI-H838", "values": [
      {"measurement": "relative viability", "setting": "[1]; first compound 0.04 µM", "value": 0.422},
      {"measurement": "relative viability", "setting": "[1]; first compound 0.1265 µM", "value": 0.334},
      {"measurement": "relative viability", "setting": "[1]; first compound 0.4 µM", "value": 0.294},
      {"measurement": "relative viability", "setting": "[1]; first compound 1.265 µM", "value": 0.209},
      {"measurement": "relative viability", "setting": "[1]; first compound 4 µM", "value": 0.211},
      {"measurement": "relative viability", "setting": "[2]; first compound 0.01 µM", "value": 0.299},
      {"measurement": "relative viability", "setting": "[2]; first compound 0.03162 µM", "value": 0.301},
      {"measurement": "relative viability", "setting": "[2]; first compound 0.1 µM", "value": 0.36},
      {"measurement": "relative viability", "setting": "[2]; first compound 1 µM", "value": 0.179},
      {"measurement": "relative viability", "setting": "[3]; first compound 0.01 µM", "value": 0.457},
      {"measurement": "relative viability", "setting": "[3]; first compound 0.03162 µM", "value": 0.473},
      {"measurement": "relative viability", "setting": "[3]; first compound 0.1 µM", "value": 0.5},
      {"measurement": "relative viability", "setting": "[3]; first compound 0.3162 µM", "value": 0.474},
      {"measurement": "relative viability", "setting": "[3]; first compound 1 µM", "value": 0.325},
      {"measurement": "relative viability", "setting": "[4]; first compound 0.04 µM", "value": 0.981},
      {"measurement": "relative viability", "setting": "[4]; first compound 0.1265 µM", "value": 0.9},
      {"measurement": "relative viability", "setting": "[4]; first compound 0.4 µM", "value": 0.68},
      {"measurement": "relative viability", "setting": "[4]; first compound 1.265 µM", "value": 0.714},
      {"measurement": "relative viability", "setting": "[4]; first compound 4 µM", "value": 0.688}
    ]},
    {"cell line": "NCI-H1355", "values": [
      {"measurement": "relative viability", "setting": "[1]; first compound 0.04 µM", "value": 0.382},
      {"measurement": "relative viability", "setting": "[1]; first compound 0.1265 µM", "value": 0.45},
      {"measurement": "relative viability", "setting": "[1]; first compound 0.4 µM", "value": 0.372},
      {"measurement": "relative viability", "setting": "[1]; first compound 1.265 µM", "value": 0.258},
      {"measurement": "relative viability", "setting": "[1]; first compound 4 µM", "value": 0.234},
      {"measurement": "relative viability", "setting": "[2]; first compound 0.01 µM", "value": 0.843},
      {"measurement": "relative viability", "setting": "[2]; first compound 0.03162 µM", "value": 0.728},
      {"measurement": "relative viability", "setting": "[2]; first compound 0.1 µM", "value": 0.753},
      {"measurement": "relative viability", "setting": "[2]; first compound 0.3162 µM", "value": 0.706},
      {"measurement": "relative viability", "setting": "[2]; first compound 1 µM", "value": 0.814},
      {"measurement": "relative viability", "setting": "[3]; first compound 0.01 µM", "value": 0.469},
      {"measurement": "relative viability", "setting": "[3]; first compound 0.03162 µM", "value": 0.433},
      {"measurement": "relative viability", "setting": "[3]; first compound 0.1 µM", "value": 0.493},
      {"measurement": "relative viability", "setting": "[3]; first compound 0.3162 µM", "value": 0.163},
      {"measurement": "relative viability", "setting": "[3]; first compound 1 µM", "value": 0.407},
      {"measurement": "relative viability", "setting": "[4]; first compound 0.04 µM", "value": 0.813},
      {"measurement": "relative viability", "setting": "[4]; first compound 0.1265 µM", "value": 0.914},
      {"measurement": "relative viability", "setting": "[4]; first compound 0.4 µM", "value": 0.622},
      {"measurement": "relative viability", "setting": "[4]; first compound 1.265 µM", "value": 0.494},
      {"measurement": "relative viability", "setting": "[4]; first compound 4 µM", "value": 0.23}
    ]},
    {"cell line": "NCI-H1395", "values": [
      {"measurement": "relative viability", "setting": "[1]; first compound 0.04 µM", "value": 0.69},
      {"measurement": "relative viability", "setting": "[1]; first compound 0.1265 µM", "value": 0.755},
      {"measurement": "relative viability", "setting": "[1]; first compound 0.4 µM", "value": 0.651},
      {"measurement": "relative viability", "setting": "[1]; first compound 1.265 µM", "value": 0.43},
      {"measurement": "relative viability", "setting": "[1]; first compound 4 µM", "value": 0.256},
      {"measurement": "relative viability", "setting": "[2]; first compound 0.01 µM", "value": 0.669},
      {"measurement": "relative viability", "setting": "[2]; first compound 0.03162 µM", "value": 0.596},
      {"measurement": "relative viability", "setting": "[2]; first compound 0.1 µM", "value": 0.677},
      {"measurement": "relative viability", "setting": "[2]; first compound 0.3162 µM", "value": 0.667},
      {"measurement": "relative viability", "setting": "[2]; first compound 1 µM", "value": 0.644},
      {"measurement": "relative viability", "setting": "[3]; first compound 0.01 µM", "value": 0.568},
      {"measurement": "relative viability", "setting": "[3]; first compound 0.03162 µM", "value": 0.576},
      {"measurement": "relative viability", "setting": "[3]; first compound 0.1 µM", "value": 0.914},
      {"measurement": "relative viability", "setting": "[3]; first compound 0.3162 µM", "value": 0.447},
      {"measurement": "relative viability", "setting": "[3]; first compound 1 µM", "value": 0.395},
      {"measurement": "relative viability", "setting": "[4]; first compound 0.04 µM", "value": 0.394},
      {"measurement": "relative viability", "setting": "[4]; first compound 0.1265 µM", "value": 0.427},
      {"measurement": "relative viability", "setting": "[4]; first compound 0.4 µM", "value": 0.383},
      {"measurement": "relative viability", "setting": "[4]; first compound 1.265 µM", "value": 0.319},
      {"measurement": "relative viability", "setting": "[4]; first compound 4 µM", "value": 0.384}
    ]},
    {"cell line": "NCI-H1437", "values": [
      {"measurement": "relative viability", "setting": "[1]; first compound 0.04 µM", "value": 0.915},
      {"measurement": "relative viability", "setting": "[1]; first compound 0.1265 µM", "value": 0.763},
      {"measurement": "relative viability", "setting": "[1]; first compound 0.4 µM", "value": 0.544},
      {"measurement": "relative viability", "setting": "[1]; first compound 1.265 µM", "value": 0.22},
      {"measurement": "relative viability", "setting": "[1]; first compound 4 µM", "value": 0.25},
      {"measurement": "relative viability", "setting": "[2]; first compound 0.01 µM", "value": 1.15},
      {"measurement": "relative viability", "setting": "[2]; first compound 0.03162 µM", "value": 1.2},
      {"measurement": "relative viability", "setting": "[2]; first compound 0.3162 µM", "value": 1.08},
      {"measurement": "relative viability", "setting": "[2]; first compound 1 µM", "value": 0.966},
      {"measurement": "relative viability", "setting": "[3]; first compound 0.01 µM", "value": 0.381},
      {"measurement": "relative viability", "setting": "[3]; first compound 0.03162 µM", "value": 0.471},
      {"measurement": "relative viability", "setting": "[3]; first compound 0.3162 µM", "value": 0.408},
      {"measurement": "relative viability", "setting": "[3]; first compound 1 µM", "value": 0.382},
      {"measurement": "relative viability", "setting": "[4]; first compound 0.04 µM", "value": 1.12},
      {"measurement": "relative viability", "setting": "[4]; first compound 0.1265 µM", "value": 1.09},
      {"measurement": "relative viability", "setting": "[4]; first compound 0.4 µM", "value": 0.755},
      {"measurement": "relative viability", "setting": "[4]; first compound 1.265 µM", "value": 0.247},
      {"measurement": "relative viability", "setting": "[4]; first compound 4 µM", "value": 0.297}
    ]}
  ]
}
